Experimental data published in patent US8916498B2, “Safening 6-(trisubstituted phenyl)-4-amino-2-pyridinecarboxylate herbicide injury on direct seeded and transplanted paddy rice” (priority 2008, dated 2014).
“And” between values parts separate entries of the source, which are not always exact repeats. Equal values may be shown once.

How the values were obtained:
[1] = test system: ORYSA (rice); assay: Postemergence herbicidal safening in direct seeded rice, visual injury; details: for Visual Injury (%) ‘Lemont’ ORYSA Obs / ‘M202’ ORYSA Visual Injury (%) Obs: after 3 weeks
Description: A=observed efficacy of active ingredient A at the same concentration as used in the mixture.
B=observed efficacy of active ingredient B at the same concentration as used in the mixture.

[2] = test system: ECHCO; assay: Postemergence herbicidal safening in direct seeded rice, visual injury on weed; type: in vivo; details: alone, after 3 weeks
[3] = test system: CYPDI; assay: as above; type: in vivo; details: alone, after 3 weeks
[4] = test system: SEBEX; assay: as above; type: in vivo; details: alone, after 3 weeks
[5] = alone, 17.5 g ae/ha, after 3 weeks (Table 14)
[6] = alone, 35 g ae/ha, after 3 weeks (Table 14)
[7] = alone, 8.75 g ae/ha, after 3 weeks (Table 14)
[8] = No safener, 17.5 g ai/ha, after 3 weeks (Table 12)
[9] = No safener, 35 g ai/ha, after 3 weeks (Table 13)
[10] = alone, 70 g ae/ha, after 3 weeks (Table 14)

O=C(C(Cl)Cl)N1CCOC12CCCCC2 [AD67]
ORYSA Visual Injury (%) ‘Lemont’ Obs ([1]; safener 140 g ai/ha alone): 0%
ORYSA Visual Injury (%) ‘M202’ Obs ([1]; safener 140 g ai/ha alone): 0%
ORYSA Visual Injury (%) ‘M202’ Obs ([1]; safener 280 g ai/ha alone): 15%

CCC(C)OC(=O)COc1ccc(Cl)c2cccnc12 (stereo not drawn) [Cloquintocet 1-Methylpropyl Ester]
Visual Injury (%) ‘Lemont’ ORYSA Obs ([1]; alone, 280 g ae/ha): 0%
Visual Injury (%) ECHCO Obs ([2]; 280 g ae/ha): 0%
Visual Injury (%) CYPDI Obs ([3]; 280 g ae/ha): 0%
Visual Injury (%) SEBEX Obs ([4]; 280 g ae/ha): 0%

CCOC(=O)COc1ccc(Cl)c2cccnc12 [Cloquintocet Ethyl Ester]
Visual Injury (%) ‘Lemont’ ORYSA Obs ([1]; alone, 280 g ae/ha): 0%
Visual Injury (%) ECHCO Obs ([2]; 280 g ae/ha): 0%
Visual Injury (%) CYPDI Obs ([3]; 280 g ae/ha): 0%
Visual Injury (%) SEBEX Obs ([4]; 280 g ae/ha): 0%

COC(=O)COc1ccc(Cl)c2cccnc12 [Cloquintocet Methyl Ester]
Visual Injury (%) ‘Lemont’ ORYSA Obs ([1]; alone, 280 g ae/ha): 0%
Visual Injury (%) ECHCO Obs ([2]; 280 g ae/ha): 0%
Visual Injury (%) CYPDI Obs ([3]; 280 g ae/ha): 0%
Visual Injury (%) SEBEX Obs ([4]; 280 g ae/ha): 0%

CC(C)OC(=O)COc1ccc(Cl)c2cccnc12 [Cloquintocet i-Propyl Ester]
Visual Injury (%) ‘Lemont’ ORYSA Obs ([1]; alone, 280 g ae/ha): 0%
Visual Injury (%) ECHCO Obs ([2]; 280 g ae/ha): 0%
Visual Injury (%) CYPDI Obs ([3]; 280 g ae/ha): 0%
Visual Injury (%) SEBEX Obs ([4]; 280 g ae/ha): 0%

C=CCOC(=O)c1nc(-c2ccc(Cl)c(OC)c2F)cc(N)c1Cl [Compound 1 Allyl Ester]
ORYSA Visual Injury (%) ‘Cheniere’ Obs [1, 5]: 55%
ORYSA Visual Injury (%) ‘Clearfield’ Obs [1, 5]: 50%
ORYSA Visual Injury (%) ‘Cocodrie’ Obs [1, 5]: 30%
ORYSA Visual Injury (%) ‘Lemont’ Obs [1, 5]: 25%
ORYSA Visual Injury (%) ‘M202’ Obs [1, 5]: 55%
ORYSA Visual Injury (%) ‘Wells’ Obs [1, 5]: 10%

CCCCOCCOC(=O)c1nc(-c2ccc(Cl)c(OC)c2F)cc(N)c1Cl [Compound 1 Et butoxy Ester]
ORYSA Visual Injury (%) ‘Cheniere’ Obs [1, 6]: 50%
ORYSA Visual Injury (%) ‘Clearfield’ Obs [1, 6]: 40%
ORYSA Visual Injury (%) ‘Cocodrie’ Obs [1, 6]: 50%
ORYSA Visual Injury (%) ‘Lemont’ Obs [1, 6]: 50%
ORYSA Visual Injury (%) ‘M202’ Obs [1, 6]: 30%
ORYSA Visual Injury (%) ‘Wells’ Obs [1, 6]: 15%

COc1c(Cl)ccc(-c2cc(N)c(Cl)c(C(=O)[O-])n2)c1F.[K+] [Compound 1 K^+ Salt]
ORYSA Visual Injury (%) ‘Cheniere’ Obs [1, 7]: 50%
ORYSA Visual Injury (%) ‘Clearfield’ Obs [1, 7]: 45%
ORYSA Visual Injury (%) ‘Cocodrie’ Obs [1, 7]: 30%
ORYSA Visual Injury (%) ‘Lemont’ Obs [1, 7]: 40%
ORYSA Visual Injury (%) ‘M202’ Obs [1, 7]: 50%
ORYSA Visual Injury (%) ‘Wells’ Obs [1, 7]: 0%

COC(=O)c1nc(-c2ccc(Cl)c(OC)c2F)cc(N)c1Cl [Compound 1 Methyl Ester]
‘M202’ ORYSA Visual Injury (%) Obs ([1]; No safener, 17.5 g ai/ha): 15.0%
ORYSA Visual Injury (%) ‘Cheniere’ Obs [1, 8]: 20%
ORYSA Visual Injury (%) ‘Cocodrie’ Obs [1, 8]: 13%
ORYSA Visual Injury (%) ‘M202’ Obs [1, 8]: 45%
‘M202’ ORYSA Visual Injury (%) Obs ([1]; No safener, 35 g ai/ha): 35.0%
Visual Injury (%) ‘Lemont’ ORYSA Obs ([1]; alone, 17.5 g ae/ha): 15%
ORYSA Visual Injury (%) ‘Cheniere’ Obs [1, 5]: 85%
ORYSA Visual Injury (%) ‘Clearfield’ Obs [1, 5]: 45%
ORYSA Visual Injury (%) ‘Cocodrie’ Obs [1, 5]: 55%
ORYSA Visual Injury (%) ‘Lemont’ Obs [1, 5]: 40%
ORYSA Visual Injury (%) ‘M202’ Obs [1, 5]: 25%
ORYSA Visual Injury (%) ‘Wells’ Obs [1, 5]: 10%
Visual Injury (%) ‘Lemont’ ORYSA Obs ([1]; alone, 35 g ae/ha): 35%
Visual Injury (%) ‘Lemont’ ORYSA Obs ([1]; alone, 70 g ae/ha): 45%
Visual Injury (%) ‘Lemont’ ORYSA Obs ([1]; alone, 70 g ai/ha): 50% and 25%
Visual Injury (%) ECHCO Obs ([2]; 17.5 g ae/ha): 99%
Visual Injury (%) ECHCO Obs ([2]; 35 g ae/ha): 99%
Visual Injury (%) ECHCO Obs ([2]; 35 g ai/ha): 95% and 100%
Visual Injury (%) ECHCO Obs ([2]; 70 g ae/ha): 100%
Visual Injury (%) ECHCO Obs ([2]; 70 g ai/ha): 99% and 100%
Visual Injury (%) CYPDI Obs ([3]; 17.5 g ae/ha): 100%
Visual Injury (%) CYPDI Obs ([3]; 35 g ae/ha): 100%
Visual Injury (%) CYPDI Obs ([3]; 35 g ai/ha): 100%
Visual Injury (%) CYPDI Obs ([3]; 70 g ae/ha): 100%
Visual Injury (%) CYPDI Obs ([3]; 70 g ai/ha): 100%
Visual Injury (%) SEBEX Obs ([4]; 17.5 g ae/ha): 100%
Visual Injury (%) SEBEX Obs ([4]; 35 g ae/ha): 100%
Visual Injury (%) SEBEX Obs ([4]; 35 g ai/ha): 100%
Visual Injury (%) SEBEX Obs ([4]; 70 g ae/ha): 100%
Visual Injury (%) SEBEX Obs ([4]; 70 g ai/ha): 100%

C#CCOC(=O)c1nc(-c2ccc(Cl)c(OC)c2F)cc(N)c1Cl [Compound 1 Propargyl Ester]
ORYSA Visual Injury (%) ‘Cheniere’ Obs [1, 7]: 55%
ORYSA Visual Injury (%) ‘Clearfield’ Obs [1, 7]: 50%
ORYSA Visual Injury (%) ‘Cocodrie’ Obs [1, 7]: 35%
ORYSA Visual Injury (%) ‘Lemont’ Obs [1, 7]: 30%
ORYSA Visual Injury (%) ‘M202’ Obs [1, 7]: 55%
ORYSA Visual Injury (%) ‘Wells’ Obs [1, 7]: 10%

CCCCOC(=O)c1nc(-c2ccc(Cl)c(OC)c2F)cc(N)c1Cl [Compound 1 n-Butyl Ester]
ORYSA Visual Injury (%) ‘Cheniere’ Obs [1, 9]: 25%
ORYSA Visual Injury (%) ‘Cocodrie’ Obs [1, 9]: 20%
ORYSA Visual Injury (%) ‘M202’ Obs [1, 9]: 28%

CCCOC(=O)c1nc(-c2ccc(Cl)c(OC)c2F)cc(N)c1Cl [Compound 1 n-Propyl Ester]
ORYSA Visual Injury (%) ‘Cheniere’ Obs [1, 10]: 45%
ORYSA Visual Injury (%) ‘Clearfield’ Obs [1, 10]: 60%
ORYSA Visual Injury (%) ‘Cocodrie’ Obs [1, 10]: 45%
ORYSA Visual Injury (%) ‘Lemont’ Obs [1, 10]: 35%
ORYSA Visual Injury (%) ‘M202’ Obs [1, 10]: 55%
ORYSA Visual Injury (%) ‘Wells’ Obs [1, 10]: 15%

Cc1ccc(NC(=O)NC(C)(C)c2ccccc2)cc1 [Daimuron, N-(4-methylphenyl)-N′-(1-methyl-1-phenylethyl)-urea]
‘M202’ ORYSA Visual Injury (%) Obs ([1]; Safener Alone, 560 g ai/ha): 3.3%
Visual Injury (%) ‘Lemont’ ORYSA Obs ([1]; alone, 35 g ai/ha): 0%
Visual Injury (%) ‘Lemont’ ORYSA Obs ([1]; alone, 70 g ai/ha): 0%
Visual Injury (%) ‘Lemont’ ORYSA Obs ([1]; alone, 140 g ai/ha): 0%
Visual Injury (%) ‘Lemont’ ORYSA Obs ([1]; alone, 280 g ai/ha): 0%
Visual Injury (%) ECHCO Obs ([2]; 35 g ai/ha): 5%
Visual Injury (%) ECHCO Obs ([2]; 70 g ai/ha): 0%
Visual Injury (%) ECHCO Obs ([2]; 140 g ai/ha): 0%
Visual Injury (%) ECHCO Obs ([2]; 280 g ai/ha): 10%
Visual Injury (%) CYPDI Obs ([3]; 35 g ai/ha): 0%
Visual Injury (%) CYPDI Obs ([3]; 70 g ai/ha): 0%
Visual Injury (%) CYPDI Obs ([3]; 140 g ai/ha): 0%
Visual Injury (%) CYPDI Obs ([3]; 280 g ai/ha): 0%
Visual Injury (%) SEBEX Obs ([4]; 35 g ai/ha): 0%
Visual Injury (%) SEBEX Obs ([4]; 70 g ai/ha): 0%
Visual Injury (%) SEBEX Obs ([4]; 140 g ai/ha): 0%
Visual Injury (%) SEBEX Obs ([4]; 280 g ai/ha): 0%

C=CCN(CC=C)C(=O)C(Cl)Cl [Dichlormid]
ORYSA Visual Injury (%) ‘Cheniere’ Obs ([1]; safener 140 g ai/ha alone): 0%
ORYSA Visual Injury (%) ‘Cocodrie’ Obs ([1]; safener 140 g ai/ha alone): 0%
ORYSA Visual Injury (%) ‘Lemont’ Obs ([1]; safener 140 g ai/ha alone): 0%

CC(C)(SC(=O)N1CCCCC1)c1ccccc1 [Dimepiperate]
ORYSA Visual Injury (%) ‘M202’ Obs ([1]; safener 280 g ai/ha alone): 10%

CCOC(=O)c1nc(C(Cl)(Cl)Cl)n(-c2ccc(Cl)cc2Cl)n1 [Fenchlorazole-ethyl]
‘M202’ ORYSA Visual Injury (%) Obs ([1]; Safener Alone, 560 g ai/ha): 0.0%

FC(F)(F)C(=NOCC1OCCO1)c1ccc(Cl)cc1 [Fluxofenim, 1-(4-chlorophenyl)-2,2,2-trifluoroethanone O-(1,3-dioxolan-2-ylmethyl)oxime]
‘M202’ ORYSA Visual Injury (%) Obs ([1]; Safener Alone, 560 g ai/ha): 3.3%

CC1(C)OC(c2ccco2)CN1C(=O)C(Cl)Cl (stereo not drawn) [Furilazole, 3-(dichloroacetyl)-5-(2-furanyl)-2,2-dimethyl-oxazolidine]
‘M202’ ORYSA Visual Injury (%) Obs ([1]; Safener Alone, 560 g ai/ha): 3.3%
ORYSA Visual Injury (%) ‘Lemont’ Obs ([1]; safener 70 g ai/ha alone): 0%

N#C/C(=N\OCC1OCCO1)c1ccccc1 [Oxabetrinil, (αZ)-α-[(1,3-dioxolan-2-yl)methoxyimino]-benzeneacetonitrile]
Visual Injury (%) ‘Lemont’ ORYSA Obs ([1]; alone, 35 g ai/ha): 0%
Visual Injury (%) ‘Lemont’ ORYSA Obs ([1]; alone, 70 g ai/ha): 15%
Visual Injury (%) ‘Lemont’ ORYSA Obs ([1]; alone, 140 g ai/ha): 0%
Visual Injury (%) ‘Lemont’ ORYSA Obs ([1]; alone, 280 g ai/ha): 10%
Visual Injury (%) ECHCO Obs ([2]; 35 g ai/ha): 0%
Visual Injury (%) ECHCO Obs ([2]; 70 g ai/ha): 0%
Visual Injury (%) ECHCO Obs ([2]; 140 g ai/ha): 0%
Visual Injury (%) ECHCO Obs ([2]; 280 g ai/ha): 0%
Visual Injury (%) CYPDI Obs ([3]; 35 g ai/ha): 0%
Visual Injury (%) CYPDI Obs ([3]; 70 g ai/ha): 0%
Visual Injury (%) CYPDI Obs ([3]; 140 g ai/ha): 0%
Visual Injury (%) CYPDI Obs ([3]; 280 g ai/ha): 0%
Visual Injury (%) SEBEX Obs ([4]; 35 g ai/ha): 0%
Visual Injury (%) SEBEX Obs ([4]; 70 g ai/ha): 0%
Visual Injury (%) SEBEX Obs ([4]; 140 g ai/ha): 0%
Visual Injury (%) SEBEX Obs ([4]; 280 g ai/ha): 0%
